One-year survival rate and median overall survival data for 1 molecule are collected here from patent US20240399142A1, “Methods Of Using Alternating Electric Fields And Checkpoint Inhibitors” (NOVOCURE GMBH, priority 2023, published 2024).

For the assay, the system named is patients with metastatic NSCLC progressing on or after platinum therapy. Kind of assay: LUNAR phase 3 randomized study: overall survival, progression-free survival, radiological response.

SMILES strings stand for the structures.

Procedure: LUNAR was a prospective, phase 3, randomized, open-label, parallel study (EF-24; NCT02973789) of TTFields (150 kHz) therapy concomitant with standard-of-care systemic therapy (docetaxel or investigator's choice immune checkpoint inhibitor) in patients with metastatic NSCLC progressing on or after platinum therapy. LUNAR was conducted at 124 sites across 17 countries in North America, Europe, and Asia (Table Si) between February 2017 and November 2021.
Eligible participants were adults (≥22 years of age) with a histological or cytological diagnosis of metastatic NSCLC that had shown radiological progression while on or after platinum-based systemic therapy (prior ICI permitted). Other than maintenance therapy, the most recent systemic therapy administered for advanced NSCLC was platinum-therapy. […]
Eligible patients were randomly assigned 1:1 (within 28 days of providing informed consent) to receive TTFields therapy to the thorax concomitant with investigator's choice of standard therapy (an immune checkpoint inhibitor [nivolumab, pembrolizumab, or atezolizumab] or docetaxel). Randomization was determined centrally using variable blocked randomization and an IxRS system, and stratified by tumor histology, treatment (docetaxel or an immune checkpoint inhibitor), and region (North America, Western Europe/Israel, and Eastern Europe). […]

Turning to `CC(=O)O[C@@]12CO[C@@H]1C[C@H](O)[C@@]1(C)C(=O)[C@H](O)C3=C(C)[C@@H](OC(=O)[C@H](O)[C@@H](NC(=O)OC(C)(C)C)c4ccccc4)C[C@@](O)([C@@H](OC(=O)c4ccccc4)[C@H]21)C3(C)C` [Docetaxel, docetaxel], the one-year survival rate (docetaxel subgroup) came to 39.4%. In addition, under “subgroup receiving docetaxel”, the median overall survival stood at 8.9 months.
